{"source": "patent US20080182978A1", "about": "“ANTI-NGF ANTIBODIES AND METHODS USING SAME” (RINAT NEUROSCIENCE CORP, priority 2002, published 2008)", "molecules": {"B1": {"name": "E3: humanized, affinity matured anti-NGF antagonist antibody; variable regions SEQ ID NO:1 and 2; human IgG2a (A330P331 to S330S331), kappa (antibody, V domains shown)", "VH": "QVQLQESGPGLVKPSETLSLTCTVSGFSLIGYDLNWIRQPPGKGLEWIGIIWGDGTTDYNSAVKSRVTISKDTSKNQFSLKLSSVTAADTAVYYCARGGYWYATSYYFDYWGQGTLVTVS", "VL": "DIQMTQSPSSLSASVGDRVTITCRASQSISNNLNWYQQKPGKAPKLLIYYTSRFHSGVPSRFSGSGSGTDFTFTISSLQPEDIATYYCQQEHTLPYTFGQGTKLEIKRT", "modifications": "human IgG2a constant (A330S/P331S) and kappa constant missing"}}, "key": {"[1]": {"tested_on": "complete Freund's adjuvant (CFA)-induced chronic arthritis", "assay": "CFA arthritis rats, paw volume (plethysmometer)", "type": "in vivo, rat", "conditions": "for change of paw volume compared to vehicle-treated arthritic group: E3 1 mg/kg or 911 10 mg/kg i.v. D14+D19, indomethacin 3 mg/kg/day p.o.; for paw volume (mean of right and left hindpaw): arthritic rats", "procedure": "Five groups of 10 animals (5-weeks old male Lewis rats-LEWIS Lew/Ico, from Charles River Laboratories—Belgium) each were included in this study: Group 1: non arthritic rats/saline (vehicle), i.v. bolus, n=10; Group 2: arthritic rats/saline (vehicle), i.v. bolus, n=10; Group 3: arthritic rats/Indomethacin 3 mg/kg, p.o daily over 10 days, n=10; […]; Group 5: arthritic rats/911, 10 mg/kg, i.v. bolus, n=10. The doses were expressed in terms of free active substance (mg/kg). E3 and 911 were extemporaneously prepared in saline from the stock solution to the desired concentration. […]. All diluted solutions (before i.v. injection) were sterilized using a sterile filter unit of 0.20.μm. pH and osmolarity values of diluted solutions were measured before each i.v. injection. Before the first i.v., osmolarity (mosm/L) for saline, E3, and 911 were 278, 269, and 308 respectively; pH for saline, E3, and 911 were 5.93, 6.76, 6.71 respectively. Before the second i.v., osmolarity (mosm/L) for saline, E3, and 911 were 280, 270, and 309 respectively; pH for saline, E3, and 911 were 5.86, 6.72, and 6.59 respectively.\nE3 or 911 or saline were administered by i.v. bolus injection on Day 14 and Day 19 after arthritis induction in a coded and random order with a volume of 5 mL/kg. The non arthritic group was given by i.v. bolus injection of saline on Day 14 and Day 19 with a volume of 5 mL/kg. Indomethacin was extemporaneously prepared in 1% methylcellulose. Indomethacin was administered by oral route (p.o.) once daily over 10 days from Day 14 to Day 23 after arthritis induction in a coded and random order with a volume of 10 mL/kg.\nThe right and left hindpaw volume of each rat (arthritic and non arthritic rats) was measured using a plethysmometer. The measurements were performed at the following times (after induction of arthritis): Day 14 (before i.v. bolus or p.o. administration); and Day 24 (5 days after the last i.v. bolus injection or 24 h after the last p.o. administration). All measurements were performed between 9:00 and 12:00 am. All the data were collected and stored by the WinDas software.\n(§1) All results were reported as Mean ±S.E.M. of 10 rats in each group at each time point. Paw volume was expressed in ml calculated from the mean value of the right and left paw volume. Arthritis index was calculated from the sum of the score obtained for each of the 4 paws. The nociceptive response was evaluated by the intensity of the level of vocalization recorded for each animal (mean of 4 values: 2 times/paw) in mV. The percentage inhibition of the nociceptive response was calculated from the mean value of the vehicle-treated arthritic group [(mean value of vehicle-treated arthritic group−mean value of treated arthritic group/mean value of vehicle-treated arthritic group)*100]. Body weight was expressed in grams. Hindpaws (left and right) weight was expressed in grams. Cytokine levels (IL-6, IL-1β, TNF-α and TGF-β1) of each hind paw was expressed in pg/ml. Circulating levels of TGF-β1 was expressed in pg/ml. Radiological index for each parameter (demineralization, erosions, periostal reaction, soft tissue damage, space joint, osteogenesis deformity) and total radiological index (total score) were calculated from the sum of the scores obtained for each parameter. The inter-group significances of the deviations between the values of vehicle-treated group (arthritic rats) and vehicle-treated group (non arthritic rats) were assessed by the Student t test or Mann-Whitney Rank Sum Test when equal variance or normality test failed. The inter-group significances of the deviations between the values of vehicle-treated group (arthritic rats) and E3- and 911- and Indomethacin-treated groups were assessed by the 1-way analysis of variance ANOVA followed by the non-paired Dunnett t test. A probability of P<0.05 was considered as significant. All statistical analysis was performed by the Sigmastat™ software."}, "[2]": {"tested_on": "complete Freund's adjuvant (CFA)-induced chronic arthritis", "assay": "CFA arthritis rats, X-ray analysis of hindpaws (radiological index)", "type": "in vivo, rat", "conditions": "for X-ray score: Deformity / X-ray score: Demineralization / X-ray score: Erosions / X-ray score: Periostal reaction / X-ray score: Soft tissue damage / X-ray score: Space joint / X-ray score: osteogenesis: score 0-4", "procedure": "On Day 24, after blood collecting the animals were sacrificed and X-ray radiographies (hindpaws) were obtained for assessment of joint lesions. X-ray analysis was focused on articular erosions, articular space, periosteum abnormalities on both hindpaws. All the radiographies were analyzed by looking at seven different items: the soft tissue damage, deformity, demineralization, joint space, erosions, osteogenesis and periostal reaction. For each animal, the first six items were analyzed independently by looking at the worse hind foot. The periostal reaction was analyzed by looking at the tail. For each item, the score goes from 0 (normal) to 4 (maximal damage). Therefore the total score goes from 0 to 28. The radiographic interpretation was done by the same reader without knowing anything about the animals (treated or not treated).\nas §1"}, "[3]": {"conditions": "E3 1 mg/kg or 911 10 mg/kg i.v. D14+D19, indomethacin 3 mg/kg/day p.o. 10 days, D24"}, "[4]": {"conditions": "arthritic rats, E3 1 mg/kg or 911 10 mg/kg i.v. D14+D19, indomethacin 3 mg/kg p.o., D24"}}, "data": [{"molecule": "COc1ccc2c(c1)c(CC(=O)O)c(C)n2C(=O)c1ccc(Cl)cc1", "note": "[Indomethacin, reference compound]", "values": [{"measurement": "change of paw volume compared to vehicle-treated arthritic group", "setting": "[1]; D24", "result": "about −0.75 mL"}, {"measurement": "paw volume (mean of right and left hindpaw)", "setting": "[1]; D14 (before dosing)", "result": "2.08 ± 0.06", "unit": "mL"}, {"measurement": "paw volume (mean of right and left hindpaw)", "setting": "[1]; [3]", "result": "1.59 ± 0.03", "unit": "mL"}, {"measurement": "decrease of X-ray total score in comparison to vehicle-treated arthritic rats", "setting": "[2]; indomethacin 3 mg/kg/day p.o. 10 days", "result": "about 10.7"}, {"measurement": "X-ray score: Deformity", "setting": "[2]; [4]", "result": "0.4 ± 0.2"}, {"measurement": "X-ray score: Demineralization", "setting": "[2]; [4]", "result": "0.3 ± 0.2"}, {"measurement": "X-ray score: Erosions", "setting": "[2]; [4]", "result": "0.9 ± 0.2"}, {"measurement": "X-ray score: Periostal reaction", "setting": "[2]; [4]", "result": "0.7 ± 0.3"}, {"measurement": "X-ray score: Soft tissue damage", "setting": "[2]; [4]", "result": "1.0 ± 0.2"}, {"measurement": "X-ray score: Space joint", "setting": "[2]; [4]", "result": "1.0 ± 0.2"}, {"measurement": "X-ray score: osteogenesis", "setting": "[2]; [4]", "result": "0.1 ± 0.1"}]}, {"molecule": "B1", "values": [{"measurement": "change of paw volume compared to vehicle-treated arthritic group", "setting": "[1]; D24", "result": "about 0.37 mL"}, {"measurement": "paw volume (mean of right and left hindpaw)", "setting": "[1]; D14 (before dosing)", "result": "2.06 ± 0.03", "unit": "mL"}, {"measurement": "paw volume (mean of right and left hindpaw)", "setting": "[1]; [3]", "result": "2.71 ± 0.09", "unit": "mL"}, {"measurement": "X-ray score: Deformity", "setting": "[2]; [4]", "result": "1.8 ± 0.2"}, {"measurement": "X-ray score: Demineralization", "setting": "[2]; [4]", "result": "2.0 ± 0.2"}, {"measurement": "X-ray score: Erosions", "setting": "[2]; [4]", "result": "2.4 ± 0.3"}, {"measurement": "X-ray score: Periostal reaction", "setting": "[2]; [4]", "result": "0.8 ± 0.2"}, {"measurement": "X-ray score: Soft tissue damage", "setting": "[2]; [4]", "result": "3.3 ± 0.3"}, {"measurement": "X-ray score: Space joint", "setting": "[2]; [4]", "result": "2.7 ± 0.2"}, {"measurement": "X-ray score: osteogenesis", "setting": "[2]; [4]", "result": "1.2 ± 0.2"}, {"measurement": "X-ray TOTAL score", "setting": "[2]; score 0-28, arthritic rats, E3 1 mg/kg or 911 10 mg/kg i.v. D14+D19, indomethacin 3 mg/kg p.o., D24", "result": "14.2±1.3"}]}]}
